One data set deals with Acinetobacter baumannii. Nature of the data set: Antibacterial activity against Acinetobacter baumannii ATCC 19606. It is filed as functional. Conditions: ATCC 19606 = CIP 70.34 = JCM 6841.
A further data set concerns Staphylococcus aureus. Put plainly: Antibacterial activity against Staphylococcus aureus CIP 7625. It is filed as functional.
The test system of a further data set is Escherichia coli. Put plainly: Antibacterial activity against Escherichia coli CIP 54.8. It is filed as functional.
In the next data set the test system is Pseudomonas aeruginosa. Put plainly: Antibacterial activity against Pseudomonas aeruginosa 100720. It is filed as functional.
Another data set has as its system Enterococcus faecium. Nature of the data set: Antibacterial activity against Enterococcus faecium 20477. It is filed as functional.
Another data set relates to Klebsiella pneumoniae. Nature of the data set: Antibacterial activity against Klebsiella pneumoniae CIP 82.91. It counts as functional.
In another data set the test system is HepG2. Nature of the data set: Cytotoxicity against human HepG2 cells assessed as reduction in cell viability. It counts as cell-based.

The structures appear in SMILES notation. Some results are limits rather than exact numbers.

What is called MIC is the lowest concentration that inhibits growth of the organism.

Regarding `CCCCCC[P+](CCCCCC)(CCCCCC)CCCCCC[P+](CCCC)(CCCC)CCCC.[Br-].[Br-]`, the MIC with Acinetobacter baumannii was above 64 µg/mL; with Staphylococcus aureus, 2 µg/mL; in the data set with Escherichia coli it was above 64 µg/mL; with Pseudomonas aeruginosa, above 64 µg/mL; in the data set on Enterococcus faecium, 8 µg/mL; against Klebsiella pneumoniae, above 64 µg/mL.

Take `CCCCCC[N+](CCCCCC)(CCCCCC)CCCCCCCCCC[P+](CCCC)(CCCC)CCCC.[Br-].[Br-]`: the MIC against Acinetobacter baumannii was above 64 µg/mL; in the data set on Staphylococcus aureus, 1 µg/mL; against Escherichia coli, 16 µg/mL; with Pseudomonas aeruginosa, above 64 µg/mL; against Enterococcus faecium, 2 µg/mL; in the data set on Klebsiella pneumoniae, 64 µg/mL.

On to `CCCCCC[P+](CCCCCC)(CCCCCC)CCCCCCCCCC[P+](CCCC)(CCCC)CCCC.[Br-].[Br-]`, for which, in the data set on HepG2, the Activity result is listed as “Toxic”. Moreover, the minimum inhibitory concentration (MIC) against Acinetobacter baumannii worked out at 8 µg/mL; against Staphylococcus aureus, 0.5 µg/mL; against Escherichia coli, 4 µg/mL; against Pseudomonas aeruginosa, 64 µg/mL; with Enterococcus faecium, 2 µg/mL; in the data set on Klebsiella pneumoniae it was 16 µg/mL.

In the case of `CCCC[P+](CCCC)(CCCC)CCCCCCCCCC[P+](CCCC)(CCCC)CCCC.[Br-].[Br-]`, the Activity result in the data set with HepG2 is listed as “Toxic”. In addition, the MIC against Acinetobacter baumannii was above 64 µg/mL; in the data set on Staphylococcus aureus, 16 µg/mL; against Escherichia coli, above 64 µg/mL; against Pseudomonas aeruginosa it was above 64 µg/mL; with Enterococcus faecium, above 64 µg/mL; in the data set with Klebsiella pneumoniae it was above 64 µg/mL.

For `CCCCCC[N+](CCCCCC)(CCCCCC)CCCCCCCCCC[P+](CCCCCC)(CCCCCC)CCCCCC.[Br-].[Br-]`, in the data set with HepG2, the Activity entry is reported as “Toxic”. The minimal inhibitory concentration (MIC) in the data set on Acinetobacter baumannii worked out at 8 µg/mL; with Staphylococcus aureus, 0.5 µg/mL; against Escherichia coli, 2 µg/mL; in the data set with Pseudomonas aeruginosa, 8 µg/mL; against Enterococcus faecium it was 1 µg/mL; in the data set with Klebsiella pneumoniae it was 2 µg/mL.

On to `CCCCCCCC[P+](CCCCCCCC)(CCCCCCCC)CCCCCCCCCC[P+](CCCCCCCC)(CCCCCCCC)CCCCCCCC.[Br-].[Br-]`, for which the Activity result in the data set on HepG2 is given as “Toxic”. Also, the MIC was above 64 µg/mL in the data set on Acinetobacter baumannii; 16 µg/mL against Staphylococcus aureus; above 64 µg/mL against Escherichia coli; above 64 µg/mL in the data set with Pseudomonas aeruginosa; 32 µg/mL against Enterococcus faecium; above 64 µg/mL against Klebsiella pneumoniae.

As to `CCCCCC[P+](CCCCCC)(CCCCCC)CCCCCC[P+](CCCCCC)(CCCCCC)CCCCCC.[Br-].[Br-]`, the MIC in the data set with Acinetobacter baumannii was determined as 16 µg/mL; in the data set with Staphylococcus aureus it was 0.5 µg/mL; in the data set with Escherichia coli, 4 µg/mL; in the data set with Pseudomonas aeruginosa, 8 µg/mL; against Enterococcus faecium, 0.5 µg/mL; against Klebsiella pneumoniae it was 8 µg/mL.

As for `CCCCCC[N+](CCCCCC)(CCCCCC)CCCCCC[P+](CCCC)(CCCC)CCCC.[Br-].[Br-]`, the MIC in the data set with Acinetobacter baumannii was above 64 µg/mL; with Staphylococcus aureus it was 32 µg/mL; in the data set with Escherichia coli it was above 64 µg/mL; against Pseudomonas aeruginosa it was above 64 µg/mL; in the data set with Enterococcus faecium it was 64 µg/mL; against Klebsiella pneumoniae, above 64 µg/mL.

On to `CCCCCC[N+](CCCCCC)(CCCCCC)CCCCCC[N+](CCCCCC)(CCCCCC)CCCCCC.[Br-].[Br-]`, for which the MIC was above 64 µg/mL in the data set with Acinetobacter baumannii; 1 µg/mL with Staphylococcus aureus; 32 µg/mL in the data set with Escherichia coli; above 64 µg/mL against Pseudomonas aeruginosa; 1 µg/mL in the data set on Enterococcus faecium; above 64 µg/mL in the data set with Klebsiella pneumoniae.

For `CCCCCC[P+](CCCCCC)(CCCCCC)CCCCCCCCCC[P+](CCCCCC)(CCCCCC)CCCCCC.[I-].[I-]`, the MIC with Acinetobacter baumannii came out at 2 µg/mL; in the data set on Staphylococcus aureus, 0.5 µg/mL; in the data set with Escherichia coli, 2 µg/mL; against Pseudomonas aeruginosa, 2 µg/mL; against Enterococcus faecium it was 0.5 µg/mL; with Klebsiella pneumoniae, 2 µg/mL.

`CCCCCC[N+](CCCCCC)(CCCCCC)CCCCCCCCCC[N+](CCCCCC)(CCCCCC)CCCCCC.[Br-].[Br-]`: the Activity entry with HepG2 is reported as “Toxic”. Also, the MIC against Acinetobacter baumannii stood at 16 µg/mL; in the data set on Staphylococcus aureus, 0.5 µg/mL; against Escherichia coli, 2 µg/mL; in the data set on Pseudomonas aeruginosa, 8 µg/mL; in the data set with Enterococcus faecium, 0.5 µg/mL; against Klebsiella pneumoniae, 4 µg/mL.

`CCCCCCCC[P+](CCCCCCCC)(CCCCCCCC)CCCCCC[P+](CCCCCC)(CCCCCC)CCCCCC.[Br-].[Br-]`: the MIC came out at 4 µg/mL against Acinetobacter baumannii; 1 µg/mL with Staphylococcus aureus; 8 µg/mL in the data set on Escherichia coli; 8 µg/mL with Pseudomonas aeruginosa; 2 µg/mL with Enterococcus faecium; 4 µg/mL in the data set with Klebsiella pneumoniae.

Consider `CCCCCC[P+](CCCCCC)(CCCCCC)CCCCCCCCCC[P+](CCCCCC)(CCCCCC)CCCCCC.[Cl-].[Cl-]`, for which the MIC was 2 µg/mL with Acinetobacter baumannii; 0.5 µg/mL against Staphylococcus aureus; 2 µg/mL against Escherichia coli; 4 µg/mL against Pseudomonas aeruginosa; 0.5 µg/mL with Enterococcus faecium; 2 µg/mL against Klebsiella pneumoniae.

With `CCCC[P+](CCCC)(CCCC)CCCCCC[P+](CCCC)(CCCC)CCCC.[Br-].[Br-]`, the MIC in the data set on Acinetobacter baumannii, against Staphylococcus aureus, against Escherichia coli, with Pseudomonas aeruginosa, with Enterococcus faecium and in the data set on Klebsiella pneumoniae was above 64 µg/mL in each case.

With `CCCCCCCC[P+](CCCCCCCC)(CCCCCCCC)CCCCCC[P+](CCCCCCCC)(CCCCCCCC)CCCCCCCC.[Br-].[Br-]`, the MIC was 8 µg/mL against Acinetobacter baumannii; 1 µg/mL in the data set on Staphylococcus aureus; 32 µg/mL in the data set with Escherichia coli; above 64 µg/mL against Pseudomonas aeruginosa; 2 µg/mL in the data set with Enterococcus faecium; 32 µg/mL with Klebsiella pneumoniae.

For the compound `CCCCCC[P+](CCCCCC)(CCCCCC)CCCCCCCCCC[P+](CCCCCC)(CCCCCC)CCCCCC.[Br-].[Br-]`, the Activity entry in the data set with HepG2 is given as “Toxic”. Moreover, the minimum inhibitory concentration (MIC) with Acinetobacter baumannii stood at 4 µg/mL; with Staphylococcus aureus it was 0.5 µg/mL; in the data set with Escherichia coli, 2 µg/mL; against Pseudomonas aeruginosa it was 4 µg/mL; in the data set on Enterococcus faecium it was 1 µg/mL; in the data set with Klebsiella pneumoniae, 4 µg/mL.

(Values after ChEMBL document CHEMBL4665712, “Phosphonium-ammonium-based di-cationic ionic liquids as antibacterial over the ESKAPE group” (Bioorg Med Chem Lett, 2020).)
